The values below come from patent US7696379B2, “Acetylene derivatives” (Novartis AG, priority 2005, dated 2010).

Series [1] deals with T1, hmGluR5 (Homo sapiens, UniProt P41594).
T1 construct: expressed in transfected cells
Briefly: inhibition of agonist induced inositol phosphate turnover in hmGluR5 expressing cells. The class given is cell-based. The note with it: read-out: IC50 concentration, inhibition of quinqualate-induced inositol phosphate turnover. The text has this:
This can be determined in vitro for example at recombinant human metabotropic glutamate receptors, especially PLC-coupled subtypes thereof such as mGluR5, using different procedures like, for example, measurement of the inhibition of the agonist induced elevation of intracellular Ca^2+ concentration in accordance with L. P. Daggett et al., Neuropharm. Vol. 34, pages 871-886 (1995), P. J. Flor et al., J. Neurochem. Vol. 67, pages 58-63 (1996) or by determination to what extent the agonist induced elevation of the inositol phosphate turnover is inhibited as described by T. Knoepfel et al., Eur. J. Pharmacol. Vol. 288, pages 389-392 (1994), L. P. Daggett et al., Neuropharm. Vol. 67, pages 58-63 (1996) and references cited therein. Isolation and expression of human mGluR subtypes are described in U.S. Pat. No. 5,521,297. Selected agents of the invention show IC50 values for the inhibition of the agonist (e.g. glutamate or quisqualate) induced elevation of intracellular Ca2+ concentration or the agonist (e.g. glutamate or quisqualate) induced inositol phosphate turnover, measured in recombinant cells expressing hmGluR5a of about 1 nM to about 50 μM.

Series [2] relates to stress-induced hyperthermia in mice. Briefly: stress-induced hyperthermia in mice. The settings on record: control hyperthermia 0.82+/−0.1° C. Format: in vivo. The protocol: A. Lecci et al., Psychopharmacol. 101, 255-261]. At doses of about 0.1 to about 30 mg/kg p.o., selected agents of the invention reverse the stress-induced hyperthermia.
With Furan-3-carboxylic acid [(1R,3R)-3-(3-chloro-phenylethynyl)-3-hydroxy-cyclohexyl]-amide, a stress-induced hyperthermia of 0.82+/−0.1° C. was reduced to 0.37+/−0.10° C. at 3 mg/kg p.o., to 0.02+/−0.08° C. at 10 mg/kg p.o. and to −0.49+/−0.12° C. at 30 mg/kg p.o. (p<0.01; p<0.001; p<0.001 respectively).

T1 sequence (P41594 21-1180 isoform P41594-2 limits assumed): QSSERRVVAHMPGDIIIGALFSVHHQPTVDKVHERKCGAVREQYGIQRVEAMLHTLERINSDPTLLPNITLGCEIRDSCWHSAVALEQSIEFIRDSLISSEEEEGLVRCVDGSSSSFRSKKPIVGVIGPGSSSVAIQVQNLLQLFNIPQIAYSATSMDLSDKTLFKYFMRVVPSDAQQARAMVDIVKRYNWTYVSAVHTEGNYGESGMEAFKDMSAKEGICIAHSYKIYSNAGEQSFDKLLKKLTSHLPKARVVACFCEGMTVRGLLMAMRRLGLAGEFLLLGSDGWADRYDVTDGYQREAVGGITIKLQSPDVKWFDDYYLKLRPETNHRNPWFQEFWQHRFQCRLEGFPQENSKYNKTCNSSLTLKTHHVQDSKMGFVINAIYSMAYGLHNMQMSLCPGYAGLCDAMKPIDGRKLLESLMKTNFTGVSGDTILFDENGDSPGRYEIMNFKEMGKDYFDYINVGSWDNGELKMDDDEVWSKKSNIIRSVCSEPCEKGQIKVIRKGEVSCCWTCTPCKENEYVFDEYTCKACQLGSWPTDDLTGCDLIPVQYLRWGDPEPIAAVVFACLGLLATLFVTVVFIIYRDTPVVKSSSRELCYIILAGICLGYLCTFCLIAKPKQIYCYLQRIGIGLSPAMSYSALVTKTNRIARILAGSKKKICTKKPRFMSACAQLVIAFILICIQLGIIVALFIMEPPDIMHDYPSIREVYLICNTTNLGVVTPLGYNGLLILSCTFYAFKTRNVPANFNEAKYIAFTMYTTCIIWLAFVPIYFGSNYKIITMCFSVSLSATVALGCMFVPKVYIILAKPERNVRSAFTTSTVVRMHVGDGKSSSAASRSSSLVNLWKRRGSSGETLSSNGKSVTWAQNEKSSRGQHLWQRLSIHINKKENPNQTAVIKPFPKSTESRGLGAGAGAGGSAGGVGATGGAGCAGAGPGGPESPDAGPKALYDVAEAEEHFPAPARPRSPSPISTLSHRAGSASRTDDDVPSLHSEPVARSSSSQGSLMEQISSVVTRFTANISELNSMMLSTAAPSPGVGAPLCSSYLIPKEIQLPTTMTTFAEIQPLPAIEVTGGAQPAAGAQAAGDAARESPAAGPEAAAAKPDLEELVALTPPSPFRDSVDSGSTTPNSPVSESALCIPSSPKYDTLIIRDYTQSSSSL

Take `O=C(N[C@@H]1CCC[C@](O)(C#Cc2cccc(F)c2)C1)c1cnc[nH]1` (racemic) [Example 1.37, 3H-Imidazole-4-carboxylic acid [(±)-(1R,3R)-3-(3-fluoro-phenylethynyl)-3-hydroxy-cyclohexyl]-amide]: the melting point is 190 to 191 °C.

`Cc1cccc(C#C[C@@]2(O)CCC[C@@H](NC(=O)c3ccoc3)C2)c1` (racemic) [Example 1.19, Furan-3-carboxylic acid ((±)-(1R,3R)-3-hydroxy-3-m-tolylethynyl-cyclohexyl)-amide]: the melting point lay in the range of 135 to 138 °C.

`Cc1cccc(C#C[C@]2(O)CCC[C@H](NC(=O)c3ccco3)C2)c1` [Example 1.21, Furan-2-carboxylic acid ((1S,3S)-3-hydroxy-3-m-tolylethynyl-cyclohexyl)-amide] registered a melting point of 139 to 140 °C.

With `O=C(N[C@@H]1CCC[C@](O)(C#Cc2cccc(Cl)c2)C1)c1ccoc1` [Example 1, Furan-3-carboxylic acid [(1R,3R)-3-(3-chloro-phenylethynyl)-3-hydroxy-cyclohexyl]-amide], the IC50 in series [1] is 0.028 µM. For the same molecule, the stress-induced hyperthermia in series [2] (3 mg/kg p.o., p<0.01) is 0.37+/−0.10 °C; in series [2] (10 mg/kg p.o., p<0.001) it was 0.02+/−0.08 °C; in series [2] (30 mg/kg p.o., p<0.001) it was −0.49+/−0.12 °C.

`Cc1cccc(C#C[C@@]2(O)CCC[C@@H](NC(=O)c3ccco3)C2)c1` [Example 1.20, Furan-2-carboxylic acid ((1R,3R)-3-hydroxy-3-m-tolylethynyl-cyclohexyl)-amide] yielded a melting point of 139 to 142 °C.

In general, melting point refers to the temperature, or range, at which the solid turns liquid.
